Earlier results on one compound are cited in patent publication US20030113384A1, “Antimicrobial compositions for mastitis control” (Ecolab Inc., priority 1999, published 2003).

`CCCCCCC(=O)O` [heptanoic acid]: the pKa is 4.4.
